From patent US20140057798A1, “PREDICTION OF DRUG SENSITIVITY OF LUNG TUMORS BASED ON MOLECULAR GENETIC SIGNATURES” (NESTEC S.A., priority 2011, published 2014)
“Also recorded” adds a separate entry of the source. Where two headings read alike, the source gives them in different places.

Key:
[1] = test system: HCC827 cells; test: Inhibition of tumor cell line growth (CellTiter-Glo), HCC827; type: cell-based, human
[2] = test system: H1975 cells; test: Inhibition of tumor cell line growth (CellTiter-Glo), H1975; type: cell-based, human
[3] = test system: Her1 and/or Her2 pathway in H1734 cells; conditions: H1734, serum-starved overnight, 4-hour treatment, CEER assay (FIG. 2)
Source text: (§1) The principal of the CEER™ assay is based on the capture of the target protein by a target-specific antibody printed in two dilutions on the surface of a microarray slide. […] Formation of this complex is initiated by the binding of the first detecting antibody, which is coupled to glucose oxidase (GO), to an epitope on the captured target protein that is different from the epitope recognized by the capture antibody, followed by the binding of a second detecting antibody, which is coupled to horseradish peroxidase (HRP), to a phosphorylated tyrosine (p-Tyr) residue on the target protein. […]
(§2) The capture antibodies against mouse IgG, human epidermal growth factor receptor 1 (Her1), human epidermal growth factor receptor 2 (Her2), human epidermal growth factor receptor 3 (Her3), human hepatocyte growth factor receptor (cMET), human insulin-like growth factor-1 receptor (IGF1R), human stem cell growth factor receptor (cKit), human phosphatidylinositol-3-kinase (PI3K), human Src homology 2 domain-containing protein (SHC) and human cytokeratin (CK), were printed in this order in 10 rows from top to bottom in each slide. […] The relative fluorescence value of the respective reagent blank was subtracted from each sample to give a relative fluorescence unit (RFU) according the number of cells' extract.

[4] = test system: H358 cells; test: Inhibition of tumor cell line growth (CellTiter-Glo), H358; type: cell-based, human; conditions: H358, single inhibitor 0.01-10 μM, 5% FBS, 48 hours
[5] = test system: H1650 cells; test: Inhibition of tumor cell line growth (CellTiter-Glo), H1650; type: cell-based, human; conditions: H1650, single inhibitor 0.01-10 μM, 5% FBS, 48 hours
[6] = test system: H1993 cells; test: Inhibition of tumor cell line growth (CellTiter-Glo), H1993; type: cell-based, human; conditions: H1993, single inhibitor 0.01-10 μM, 5% FBS, 48 hours
[7] = test system: H1734 cells; test: Anchorage-independent growth inhibition (soft agarose colonies), H1734; type: cell-based, human; conditions: H1734, 0.1 μM and 1 μM, two weeks, agar
[8] = test system: H460 cells; test: Inhibition of tumor cell line growth (CellTiter-Glo), H460; type: cell-based, human; conditions: H460, single inhibitor 0.01-10 μM, 5% FBS, 48 hours
[9] = test system: H1734 cells; test: Inhibition of tumor cell line growth (CellTiter-Glo), H1734; conditions: H1734, single inhibitor 0.01-10 μM, 5% FBS, 48 hours
[10] = test system: A549 cells; test: Inhibition of tumor cell line growth (CellTiter-Glo), A549; type: cell-based, human; conditions: A549, single inhibitor 0.01-10 μM, 5% FBS, 48 hours
[11] = test system: eight human lung tumor cell lines; test: Inhibition of tumor cell growth, panel of lung tumor cell lines; type: cell-based
[12] = test system: IGF-1R pathway in A549 cells; test: Inhibition of activated signaling pathways by kinase inhibitors (CEER assay), A549; type: cell-based, human; conditions: A549, serum-starved overnight, 4-hour treatment, CEER assay (FIG. 2)
Source text: as §1, §2

[13] = test system: IGF-1R pathway in H460 cells; test: Inhibition of activated signaling pathways by kinase inhibitors (CEER assay), H460; type: cell-based, human; conditions: H460, serum-starved overnight, 4-hour treatment, CEER assay (FIG. 2)
Source text: as §1, §2

[14] = test system: H358 cells; test: Anchorage-independent growth inhibition (soft agarose colonies), H358; type: cell-based, human; conditions: H358, 0.1 μM and 1 μM, two weeks, agar
Procedure: (§3) The plates were kept at 4° C. for 2 hr to solidify the cell-containing layer. The plates were then incubated at 37° C. in a CO2 incubator with 2 mL of medium containing various concentrations of the kinase inhibitor. The medium with the inhibitor was changed every 3 days.

[15] = test system: H460 cells; test: Anchorage-independent growth inhibition (soft agarose colonies), H460; type: cell-based, human; conditions: H460, 0.1 μM and 1 μM, two weeks, agar
Procedure: as §3

[16] = test system: A549 cells; test: Anchorage-independent growth inhibition (soft agarose colonies), A549; type: cell-based, human; conditions: A549, 0.1 μM and 1 μM, two weeks, agar
Procedure: as §3

[17] = test system: H1993 cells; test: Anchorage-independent growth inhibition (soft agarose colonies), H1993; type: cell-based, human; conditions: H1993, 0.1 μM and 1 μM, two weeks, agar
Procedure: as §3

[18] = test system: c-Met pathway in H1993 cells; test: Inhibition of activated signaling pathways by kinase inhibitors (CEER assay), H1993 c-Met; type: cell-based, human; conditions: H1993, serum-starved overnight, 4-hour treatment, CEER assay (FIG. 2)
Source text: as §1, §2

[19] = H1975, single inhibitor 0.01-10 μM, 5% FBS, 48 hours

SMILES	inhibition of cell proliferation [2, 19]	inhibition of cell proliferation [4]	inhibition of cell proliferation [6]	inhibition of cell proliferation [8]	inhibition of cell proliferation [10]	also measured
CS(=O)(=O)CCNCc1ccc(-c2ccc3ncnc(Nc4ccc(OCc5cccc(F)c5)c(Cl)c4)c3c2)o1 [Lapatinib]	resistant	weakly blocked				inhibition of cell proliferation [1]: able to inhibit the proliferation; blocking of Her1 and/or Her2 pathway activation [3]: activation blocked
CN(C)C/C=C/C(=O)Nc1cc2c(Nc3ccc(F)c(Cl)c3)ncnc2cc1O[C@H]1CCOC1 [BIBW-2992]			only weakly			inhibition of cell proliferation [2]: potently inhibit the growth; also recorded: moderately inhibited; inhibition of cell proliferation [5]: inhibited
O=C(NOC[C@H](O)CO)c1ccc(F)c(F)c1Nc1ccc(I)cc1F [PD-325901]	weakly inhibited	not	able to block the proliferation	not	not and weakly	proliferation of cell colony size, anchorage-independent growth [7]: potently blocked; inhibition of cell proliferation [9]: effective in blocking the growth
Cn1c(=O)n(-c2ccc(C(C)(C)C#N)cc2)c2c3cc(-c4cnc5ccccc5c4)ccc3ncc21 [BEZ-235]	weakly inhibited		only weakly	inhibited; also recorded: sensitive	inhibited; also recorded: sensitive	inhibition of tumor cell growth across the cell lines tested [11]: effectively inhibited tumor cell growth in most of the cell lines tested, except the H1993 and H1650 cells
C#Cc1cccc(Nc2ncnc3cc(OCCOC)c(OCCOC)cc23)c1 [Erlotinib]	inhibited					inhibition of cell proliferation [9]: inhibited
Cc1cc(N2CCOCC2)cc2[nH]c(-c3c(NC[C@@H](O)c4cccc(Cl)c4)cc[nH]c3=O)nc12 [BMS-536924]	able to inhibit the growth	inhibit its proliferation more effectively		weakly inhibited	inhibited	inhibition of cell proliferation ([1]; HCC827, single inhibitor 0.01-10 μM, 5% FBS, 48 hours): inhibition of proliferation; blocking of activated IGF-1R pathway [12]: able to block; blocking of activated IGF-1R pathway [13]: able to block; reduction of cell colony size, anchorage-independent growth [14]: reduce cell colony size formation dose-dependently; reduction of cell colony size, anchorage-independent growth [15]: reduce cell colony size formation dose-dependently; reduction of cell colony size, anchorage-independent growth [16]: reduce cell colony size formation dose-dependently
C[C@@H](Oc1cc(-c2cnn(C3CCNCC3)c2)cnc1N)c1c(Cl)ccc(F)c1Cl [PF-2341066]		not inhibited	block its proliferation very effectively			large colony formation, anchorage-independent growth [17]: inhibited; blocking of c-Met pathway activation [18]: blocked
